Reference: the supplement of paper PMC10307832

Key:
Experiment in all cases: relative viability (nuclei count vs DMSO), 5 days (fraction); higher = more cells survive
NCI-H2085 = system: NCI-H2085
Procedure, shortened: (§1)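 Nuclei were stained with Hoechst during a one-step fixation (final 0.05% Triton X-100, 1% formaldehyde, 1 ug/ml Hoechst) carried out 5 days after dosing, then counted on 4× images. The cells, lung cancer lines in 1536-well plates, had been dosed by pin tool the day after seeding with one drug alone or a fixed anchor-drug dose plus five library-drug doses (not always all listed) in √10 steps. Relative viability is the nuclei count in treated wells divided by that in vehicle wells, and each value is the median of duplicate plates.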

NCI-H520 = system: NCI-H520
Procedure, shortened: as §1

SK-MES-1 = system: SK-MES-1
Procedure, shortened: as §1

HCC-827 = system: HCC-827
Procedure, shortened: as §1

NCI-H1395 = system: NCI-H1395
Procedure, shortened: as §1

H3255 = system: H3255
Procedure, shortened: as §1

ChaGo-K-1 = system: ChaGo-K-1
Procedure, shortened: as §1

NCI-H2023 = system: NCI-H2023
Procedure, shortened: as §1

NCI-H838 = system: NCI-H838
Procedure, shortened: as §1

EMC-BAC-2 = system: EMC-BAC-2
Procedure, shortened: as §1

HCC-44 = system: HCC-44
Procedure, shortened: as §1

EPLC-272H = system: EPLC-272H
Procedure, shortened: as §1

LU99A = system: LU99A
Procedure, shortened: as §1

NCI-H1563 = system: NCI-H1563
Procedure, shortened: as §1

NCI-H2087 = system: NCI-H2087
Procedure, shortened: as §1

NCI-H1793 = system: NCI-H1793
Procedure, shortened: as §1

COR-L23 = system: COR-L23
Procedure, shortened: as §1

LCLC-103H = system: LCLC-103H
Procedure, shortened: as §1

NCI-H2405 = system: NCI-H2405
Procedure, shortened: as §1

NCI-H1651 = system: NCI-H1651
Procedure, shortened: as §1

NCI-H1944 = system: NCI-H1944
Procedure, shortened: as §1

NCI-H650 = system: NCI-H650
Procedure, shortened: as §1

COc1cc2nccc(Oc3ccc(NC(=O)Nc4cc(C)on4)c(Cl)c3)c2cc1OC [Tivozanib] + CCNC(=O)c1noc(-c2cc(C(C)C)c(O)cc2O)c1-c1ccc(CN2CCOCC2)cc1 [Luminespib] (partner 0.01 µM)
relative viability (NCI-H2085; first compound 0.005 µM): 0.431 | relative viability (NCI-H2085; first compound 0.01581 µM): 0.4 | relative viability (NCI-H2085; first compound 0.05 µM): 0.469 | relative viability (NCI-H2085; first compound 0.1581 µM): 0.431 | relative viability (NCI-H2085; first compound 0.5 µM): 0.522 | relative viability (NCI-H520; first compound 0.005 µM): 0.287 | relative viability (NCI-H520; first compound 0.01581 µM): 0.219 | relative viability (NCI-H520; first compound 0.05 µM): 0.222 | relative viability (NCI-H520; first compound 0.1581 µM): 0.328 | relative viability (NCI-H520; first compound 0.5 µM): 0.245 | relative viability (SK-MES-1; first compound 0.005 µM): 0.737 | relative viability (SK-MES-1; first compound 0.01581 µM): 0.832 | relative viability (SK-MES-1; first compound 0.05 µM): 0.773 | relative viability (SK-MES-1; first compound 0.1581 µM): 0.837 | relative viability (SK-MES-1; first compound 0.5 µM): 0.807 | relative viability (HCC-827; first compound 0.005 µM): 0.588 | relative viability (HCC-827; first compound 0.01581 µM): 0.63 | relative viability (HCC-827; first compound 0.05 µM): 0.413 | relative viability (HCC-827; first compound 0.1581 µM): 0.467 | relative viability (HCC-827; first compound 0.5 µM): 0.6 | relative viability (NCI-H1395; first compound 0.005 µM): 0.654 | relative viability (NCI-H1395; first compound 0.01581 µM): 0.755 | relative viability (NCI-H1395; first compound 0.05 µM): 0.852 | relative viability (NCI-H1395; first compound 0.1581 µM): 0.706 | relative viability (NCI-H1395; first compound 0.5 µM): 0.688 | relative viability (H3255; first compound 0.005 µM): 0.69 | relative viability (H3255; first compound 0.01581 µM): 0.851 | relative viability (H3255; first compound 0.05 µM): 0.821 | relative viability (H3255; first compound 0.1581 µM): 0.704 | relative viability (H3255; first compound 0.5 µM): 0.681 | relative viability (ChaGo-K-1; first compound 0.005 µM): 0.622 | relative viability (ChaGo-K-1; first compound 0.01581 µM): 0.565 | relative viability (ChaGo-K-1; first compound 0.05 µM): 0.593 | relative viability (ChaGo-K-1; first compound 0.1581 µM): 0.497 | relative viability (ChaGo-K-1; first compound 0.5 µM): 0.502 | relative viability (NCI-H2023; first compound 0.005 µM): 0.664 | relative viability (NCI-H2023; first compound 0.01581 µM): 0.698 | relative viability (NCI-H2023; first compound 0.05 µM): 0.681 | relative viability (NCI-H2023; first compound 0.1581 µM): 0.748 | relative viability (NCI-H2023; first compound 0.5 µM): 0.763 | relative viability (NCI-H838; first compound 0.005 µM): 0.196 | relative viability (NCI-H838; first compound 0.01581 µM): 0.265 | relative viability (NCI-H838; first compound 0.05 µM): 0.501 | relative viability (NCI-H838; first compound 0.5 µM): 0.237 | relative viability (EMC-BAC-2; first compound 0.005 µM): 1.13 | relative viability (EMC-BAC-2; first compound 0.01581 µM): 1.18 | relative viability (EMC-BAC-2; first compound 0.05 µM): 1.26 | relative viability (EMC-BAC-2; first compound 0.1581 µM): 1.13 | relative viability (EMC-BAC-2; first compound 0.5 µM): 1.16 | relative viability (HCC-44; first compound 0.005 µM): 1.01 | relative viability (HCC-44; first compound 0.01581 µM): 1.06 | relative viability (HCC-44; first compound 0.05 µM): 0.927 | relative viability (HCC-44; first compound 0.1581 µM): 1.19 | relative viability (HCC-44; first compound 0.5 µM): 1.08 | relative viability (EPLC-272H; first compound 0.005 µM): 0.24 | relative viability (EPLC-272H; first compound 0.01581 µM): 0.383 | relative viability (EPLC-272H; first compound 0.05 µM): 0.34 | relative viability (EPLC-272H; first compound 0.1581 µM): 0.242 | relative viability (EPLC-272H; first compound 0.5 µM): 0.443 | relative viability (LU99A; first compound 0.005 µM): 0.206 | relative viability (LU99A; first compound 0.01581 µM): 0.246 | relative viability (LU99A; first compound 0.05 µM): 0.218 | relative viability (LU99A; first compound 0.1581 µM): 0.203 | relative viability (LU99A; first compound 0.5 µM): 0.274 | relative viability (NCI-H1563; first compound 0.005 µM): 0.45 | relative viability (NCI-H1563; first compound 0.01581 µM): 0.539 | relative viability (NCI-H1563; first compound 0.05 µM): 0.541 | relative viability (NCI-H1563; first compound 0.1581 µM): 0.52 | relative viability (NCI-H1563; first compound 0.5 µM): 0.472 | relative viability (NCI-H2087; first compound 0.005 µM): 0.135 | relative viability (NCI-H2087; first compound 0.01581 µM): 0.209 | relative viability (NCI-H2087; first compound 0.05 µM): 0.189 | relative viability (NCI-H2087; first compound 0.1581 µM): 0.148 | relative viability (NCI-H2087; first compound 0.5 µM): 0.147 | relative viability (NCI-H1793; first compound 0.005 µM): 0.154 | relative viability (NCI-H1793; first compound 0.01581 µM): 0.422 | relative viability (NCI-H1793; first compound 0.05 µM): 0.2 | relative viability (NCI-H1793; first compound 0.1581 µM): 0.141 | relative viability (NCI-H1793; first compound 0.5 µM): 0.237 | relative viability (COR-L23; first compound 0.005 µM): 0.62 | relative viability (COR-L23; first compound 0.01581 µM): 0.607 | relative viability (COR-L23; first compound 0.05 µM): 0.748 | relative viability (COR-L23; first compound 0.1581 µM): 0.597 | relative viability (COR-L23; first compound 0.5 µM): 0.532 | relative viability (LCLC-103H; first compound 0.005 µM): 0.847 | relative viability (LCLC-103H; first compound 0.01581 µM): 0.85 | relative viability (LCLC-103H; first compound 0.05 µM): 0.91 | relative viability (LCLC-103H; first compound 0.1581 µM): 0.964 | relative viability (LCLC-103H; first compound 0.5 µM): 0.921 | relative viability (NCI-H2405; first compound 0.005 µM): 0.644 | relative viability (NCI-H2405; first compound 0.01581 µM): 0.953 | relative viability (NCI-H2405; first compound 0.05 µM): 0.723 | relative viability (NCI-H2405; first compound 0.1581 µM): 0.684 | relative viability (NCI-H2405; first compound 0.5 µM): 0.54 | relative viability (NCI-H1651; first compound 0.005 µM): 0.86 | relative viability (NCI-H1651; first compound 0.01581 µM): 0.638 | relative viability (NCI-H1651; first compound 0.05 µM): 0.842 | relative viability (NCI-H1651; first compound 0.1581 µM): 0.883 | relative viability (NCI-H1651; first compound 0.5 µM): 0.931 | relative viability (NCI-H1944; first compound 0.005 µM): 0.691 | relative viability (NCI-H1944; first compound 0.01581 µM): 0.83 | relative viability (NCI-H1944; first compound 0.05 µM): 0.732 | relative viability (NCI-H1944; first compound 0.1581 µM): 0.625 | relative viability (NCI-H1944; first compound 0.5 µM): 0.818 | relative viability (NCI-H650; first compound 0.005 µM): 0.807 | relative viability (NCI-H650; first compound 0.01581 µM): 0.784 | relative viability (NCI-H650; first compound 0.05 µM): 0.795 | relative viability (NCI-H650; first compound 0.1581 µM): 0.692 | relative viability (NCI-H650; first compound 0.5 µM): 0.708
